Values quoted from earlier work, collected in US20190125685A1, “COMPOSITE CAPSULE PREPARATION CONTAINING TADALAFIL AND TAMSULOSIN AND HAVING IMPROVED STABILITY AND ELUTION RATE” (HANMI PHARM. CO., LTD., priority 2016, published 2019).

Settings: in vivo

## CN1CC(=O)N2[C@H](c3ccc4c(c3)OCO4)c3[nH]c4ccccc4c3C[C@@H]2C1=O [Tadalafil]
  Half-life relative to that of sildenafil or vardenafil: ≥ 3 times
